# From patent US4429126A, “Sodium salt of 4-oxo-10-(2,3-dimethylpentanamido)-4H-pyrimido[1,2-c]quinozoline-3-carbo xylic acid” (Fujisawa Pharmaceutical Co., Ltd., priority 1982, dated 1984)
# System: PCA (Passive Cutaneous Anaphylaxis) reaction
# Assay: TEST I: Inhibitory effect on PCA (Passive Cutaneous Anaphylaxis) reaction (64 fold diluted antiserum)
# Type: in vivo, male SD (Sprague-Dawley) strain rats
# Conditions: Rattus norvegicus, intravenous, 10 mg/kg, 5 minutes before antigen challenge, read-out: Inhibitory effect (%), Intravenous administration (10 mg/kg)
# Description: A solution of egg albumin (2 mg) in B. pertussis-diphtheria-tetanus mixed vaccine (1 ml) was mixed with Freund incomplete adjuvant (1 ml) to give an emulsion. The emulsion was given subcutaneously in a single dose of 1 ml divided equally (0.25 ml) to the four foot pads of male SD (Sprague-Dawley) strain rats aged 8 weeks, each weighing about 300 g.
# 10 days after the immunization, blood samples were collected from femoral artery of the rats and allowed to stand under ice-cooling for 5 hours. The separated supernatant was centrifuged at 4° C. (10,000 r.p.m.×1 hour). The antisera thus obtained were stored at -80° C. prior to use.
# Male SD-strain rats aged 8 weeks, weighing 290 to 330 g, were used for PCA reaction with the homologus reaginic antiserum as prepared above. Each 0.1 ml of 64 fold diluted antiserum were injected intradermally at separate sites on the back of rats clipped free of hair, and 48 hours later, 1 ml of aqueous solution containing each 5 mg of the egg albumin and Evans blue was injected intravenously to evoke PCA reaction. Test compound was given to the animals orally 60 minutes or intravenously 5 minutes before the challenge with antigen. Control group received vehicle. Each dose group consisted of 5 animals. One hour after the challenge with antigen, the animals were sacrificed and then skinned. Dye spots caused with antiserum were investigated for their size on the reversed side of the skin, respectively. The results were expressed by percent inhibition values calculated from averaged values of the longest and shortest diameters for each spot in comparison with those in control group.
row,Molecule,inhibition in vivo at 10 mg/kg [%]
1,CCCc1ccc2ncnc(NC=C(C(=O)OCC)C(=O)OCC)c2c1 [compound 4],85.9
2,CCOC(=O)C(=CNc1ncnc2ccc(N3CCN(C)CC3)cc12)C(=O)OCC [compound 12],51.2
3,"CCOC(=O)C(=CNc1ncnc2ccccc12)C(=O)OCC [Test compound No. 1, diethyl[(4-quinazolinylamino)methylene]propanedioate]",100
4,CCOC(=O)C(=CNc1ncnc2ccc(C)cc12)C(=O)OCC [compound 2],100
5,CCOC(=O)c1cnc2c3cc(N4CCN(C)CC4)ccc3ncn2c1=O [compound 34],100
6,CCOC(=O)C(=CNc1nc(=O)n(C)c2ccccc12)C(=O)OCC [compound 22],100
7,CCOC(=O)C(=O)Nc1ccc2ncnc(NC=C(C(=O)OCC)C(=O)OCC)c2c1 [compound 17],100
8,"CCOC(=O)C(=CNc1ncnc2ccc(NC(=O)C(C)C)cc12)C(=O)OCC [Example 16, diethyl [(6-isobutyramido-4-quinazolinylamino)methylene]propanedioate]",100
9,CCOC(=O)C(=CNc1ncnc2ccc(N(C)C)cc12)C(=O)OCC [compound 11],100
10,"CCOC(=O)C(=CNc1ncnc2ccc(CC)cc12)C(=O)OCC [Test compound No. 3, diethyl [(6-ethyl-4-quinazolinylamino)methylene]propanedioate]",100
11,CCOC(=O)C(=CNc1nc(OC)nc2ccccc12)C(=O)OCC [compound 20],37.6
12,CCOC(=O)c1cnc2c3ccccc3ncn2c1=O [compound 23],100
13,CCOC(=O)C(=CNc1ncnc2ccc(NC(C)=O)cc12)C(=O)OCC [compound 13],100

# Same assay, conditions: intravenous, 10 mg/kg, 5 minutes before antigen challenge
row,Molecule,"Inhibitory effect (%), Intravenous administration (10 mg/kg) [%]"
1,diethyl [[6-(2-ethylbutyramido)-4-quinazolinylamino]methylene]propanedioate [Example 54],48.4
2,dimethyl [{6-pivalamido-4-quinazolinylamino}methylene]propanedioate [Example 30],100
3,"ethyl 4-oxo-10-(2-ethylbutyramido)-4H-pyrimido[1,2-C]quinazoline-3-carboxylate [Example 55]",91.0
4,"4-oxo-4H-pyrimido[1,2-c]quinazoline-3-carboxylic acid [Example 27]",100
5,"methyl 4-oxo-10-(3,3-dimethylbutyramido)-4H-pyrimido[1,2-c]quinazoline-3-carboxylate [Example 38]",100
6,"diethyl 4,9-dioxo-4H,9H-pyrimido[1,2-c]pyrimido[1,2-a]quinazoline-3,8-dicarboxylate [Example 25]",100
7,"tetraethyl 2,2-[2,4-quinazolinediylbis(iminomethylidyne)]bispropanedioate [Example 8]",52.7
8,"methyl 4-oxo-10-(2-ethylbutyramido)-4H-pyrimido[1,2-C]quinazoline-3-carboxylate [Example 46]",76.3
9,diethyl [(6-nitro-4-quinazolinylamino)methylene]propanedioate [Test compound No. 8],24.4
10,dimethyl [[6-cyclohexanecarboxamido-4-quinazolinylamino]methylene]propanedioate [Example 44],0
11,"dimethyl [[6-(2,3-dimethylpentanamido)-4-quinazolinylamino]methylene]propanedioate [Example 57]",100
12,"4-oxo-10-(2-methylpropionamido)-4H-pyrimido[1,2-C]quinazoline-3-carboxylicacid [Test compound No. 63]",100
13,"diethyl [{6-(3,3-dimethylbutyramido)-4-quinazolinylamino}methylene]propanedioate [Example 29]",100
14,"methyl 4-oxo-10-cyclohexanecarboxamido-4H-pyrimido[1,2-C]quinazoline-3-carboxylate [Example 48]",100
15,"ethyl 4-oxo-10-(3-cyclopentylpropionamido)-4H-pyrimido[1,2-C]quinazoline-3-carboxylate [Example 56]",100
16,"methyl 4-oxo-10-(2-methylpropionamido)-4H-pyrimido[1,2-C]quinazoline-3-carboxylate [Example 47]",100
17,"4H-pyrimido[1,2-c]quinazoline-4-one [Example 26]",100
18,Diethyl [(6-acetamido-4-quinazolinylamino)methylene]propanedioate [Test compound No. 13],100
19,diethyl [{6-methanesulfonamido-4-quinazolinylamino}methylene]propanedioate [Example 31],64.9
20,"ethyl 4-oxo-4H-pyrimido[1,2-c]quinazoline-3-carboxylate [Test compound No. 23]",75.4
21,"4-oxo-10-cyclohexanecarboxamido-4H-pyrimido[1,2-C]quinazoline-3-carboxylicacid [Example 52]",100
22,"4-oxo-10-(2-ethylbutyramido)-4H-pyrimido[1,2-C]quinazoline-3-carboxylic acid [Test compound No. 64]",39.8
23,"4-oxo-10-(3-cyclopentylpropionamido)-4H-pyrimido[1,2-C]quinazoline-3-carboxylic acid [Example 53]",85.0

# Same assay, conditions: oral, 100 mg/kg, 60 minutes before antigen challenge
row,Molecule,"Inhibitory effect (%), Oral administration (100 mg/kg) [%]"
1,"4-oxo-10-pivalamido-4H-pyrimido[1,2-c]quinazoline-3-carboxyic acid [Test compound No. 60]",75.8
2,"CCOC(=O)C(=CNc1ncnc2ccc(NC(=O)C(C)C)cc12)C(=O)OCC [Example 16, diethyl [(6-isobutyramido-4-quinazolinylamino)methylene]propanedioate]",51.6
3,dimethyl [[6-cyclohexanecarboxamido-4-quinazolinylamino]methylene]propanedioate [Example 44],49.1
4,"dimethyl [[6-(2,3-dimethylpentanamido)-4-quinazolinylamino]methylene]propanedioate [Example 57]",100
5,"methyl 4-oxo-10-cyclohexanecarboxamido-4H-pyrimido[1,2-C]quinazoline-3-carboxylate [Example 48]",57.5
6,"ethyl 4-oxo-10-(3-cyclopentylpropionamido)-4H-pyrimido[1,2-C]quinazoline-3-carboxylate [Example 56]",24.2
7,"methyl 4-oxo-10-pivalamido-4H-pyrimido[1,2-c]quinazoline-3-carboxylate [Test compound No. 59]",72.7
8,CCOC(=O)C(=CNc1ncnc2ccc(NC(=O)CC)cc12)C(=O)OCC [compound 14],77.4
9,"ethyl 4-oxo-10-(3,3-dimethylbutyramido)-4H-pyrimido[1,2-c]quinazoline-3-carboxylate [Test compound No. 61]",74.2
10,diethyl [(6-amino-4-quinazolinylamino)methylene]propanedioate [Example 15],58.1
